Data reported in patent US12122833B2, “Combination therapies of HDAC inhibitors and PD-1 inhibitors” (HUYABIO International, LLC, priority 2016, dated 2024).

How the values were obtained:
[1] = system: 4T1 murine mammary carcinoma; assay: Example 4: lung metastatic foci count, orthotopic 4T1 murine mammary carcinoma in BALB/c mice; assay type: in vivo, mouse; details: day 14; HBI-8000 50 mg/kg p.o. qd×13; anti-PD-1 5 mg/kg i.p. biwk×2; vs vehicle control (35.0±2.17 foci)
Procedure: In this Example 4, antitumor responses induced by HBI-8000, administered alone and in combination with anti-PD-1 RMP1-14 (anti-PD-1) were characterized in the 4T1 murine mammary carcinoma xenograft model in BALB/c mice. The impact of these therapies on lung metastasis was evaluated.
Treatments began on Day (D) 1 in BALB/c mice bearing established 4T1 tumors. HBI-8000 was administered orally (p.o.) and anti-PD-1 was administered intraperitoneally (i.p.), at a single dose level. Test agents were administered alone and in combination with HBI-8000. Control animals received vehicle. The study ended on D14 as the endpoint for metastatic foci was reached. Treatment response was determined based on metastases counts taken from animals remaining on D14.
In Vivo Implantation and Tumor Growth: 4T1 tumor cells were harvested during exponential growth and resuspended in PBS. […] Tumor growth was monitored as the average size of tumors approached the target range of 80-120 mm3. […]
Results were analyzed by counting the lung metastatic foci on D14, the last day of the study. […] Percent inhibition was defined as the difference between the number of metastatic foci of the designated control group and the number of metastatic foci of the drug-treated group, expressed as a percentage of the number of metastatic foci of the designated control group: […]

[2] = target: HDAC 1 (Homo sapiens, UniProt Q13547); details: reported by Ning et al.; cited from earlier work
Sequence of HDAC 1 (Q13547 whole entry): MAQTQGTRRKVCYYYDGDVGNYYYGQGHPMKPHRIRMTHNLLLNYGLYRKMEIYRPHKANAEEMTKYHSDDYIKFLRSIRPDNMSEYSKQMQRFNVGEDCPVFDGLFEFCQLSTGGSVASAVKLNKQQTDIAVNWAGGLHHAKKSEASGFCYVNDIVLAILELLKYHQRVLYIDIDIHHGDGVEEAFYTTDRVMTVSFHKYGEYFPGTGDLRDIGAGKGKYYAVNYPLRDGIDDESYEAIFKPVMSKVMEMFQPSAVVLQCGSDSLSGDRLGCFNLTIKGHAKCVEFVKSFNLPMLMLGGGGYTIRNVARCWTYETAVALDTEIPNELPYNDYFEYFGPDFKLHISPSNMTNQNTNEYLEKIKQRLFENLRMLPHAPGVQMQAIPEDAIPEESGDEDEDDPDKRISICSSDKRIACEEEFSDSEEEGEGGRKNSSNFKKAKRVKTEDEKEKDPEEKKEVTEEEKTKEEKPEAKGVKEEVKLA

[3] = target: HDAC 2 (Homo sapiens, UniProt Q92769); details: reported by Ning et al.; cited from earlier work
Sequence of HDAC 2 (Q92769 whole entry): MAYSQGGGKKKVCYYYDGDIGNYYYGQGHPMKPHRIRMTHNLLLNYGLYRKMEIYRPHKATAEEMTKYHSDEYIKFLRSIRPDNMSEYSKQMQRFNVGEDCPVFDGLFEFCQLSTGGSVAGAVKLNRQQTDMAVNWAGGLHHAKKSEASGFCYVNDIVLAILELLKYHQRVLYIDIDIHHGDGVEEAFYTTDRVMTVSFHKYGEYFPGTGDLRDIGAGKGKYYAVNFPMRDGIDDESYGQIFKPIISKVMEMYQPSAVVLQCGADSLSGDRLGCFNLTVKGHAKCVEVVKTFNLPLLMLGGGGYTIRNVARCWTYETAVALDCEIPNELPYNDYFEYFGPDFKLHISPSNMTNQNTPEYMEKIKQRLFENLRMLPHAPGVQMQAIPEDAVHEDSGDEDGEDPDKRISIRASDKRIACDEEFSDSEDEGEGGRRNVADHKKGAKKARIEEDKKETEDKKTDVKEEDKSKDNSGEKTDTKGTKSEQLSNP

[4] = target: T1, HDAC 8 (Homo sapiens, UniProt Q9BY41); details: cited from earlier work
T1 sequence (Q9BY41 1-377): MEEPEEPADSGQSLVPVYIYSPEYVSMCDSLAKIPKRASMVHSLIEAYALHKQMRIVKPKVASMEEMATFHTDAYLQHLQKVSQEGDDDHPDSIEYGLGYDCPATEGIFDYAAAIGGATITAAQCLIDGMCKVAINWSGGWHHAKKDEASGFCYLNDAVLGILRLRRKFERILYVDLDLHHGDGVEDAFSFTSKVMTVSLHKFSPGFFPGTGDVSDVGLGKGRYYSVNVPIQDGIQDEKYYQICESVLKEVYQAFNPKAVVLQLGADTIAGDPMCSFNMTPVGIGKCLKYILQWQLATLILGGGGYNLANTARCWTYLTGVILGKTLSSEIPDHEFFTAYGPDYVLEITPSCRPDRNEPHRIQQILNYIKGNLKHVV

[5] = target: T2, HDAC 11 (Homo sapiens, UniProt Q96DB2); details: cited from earlier work
T2 sequence (Q96DB2 1-347): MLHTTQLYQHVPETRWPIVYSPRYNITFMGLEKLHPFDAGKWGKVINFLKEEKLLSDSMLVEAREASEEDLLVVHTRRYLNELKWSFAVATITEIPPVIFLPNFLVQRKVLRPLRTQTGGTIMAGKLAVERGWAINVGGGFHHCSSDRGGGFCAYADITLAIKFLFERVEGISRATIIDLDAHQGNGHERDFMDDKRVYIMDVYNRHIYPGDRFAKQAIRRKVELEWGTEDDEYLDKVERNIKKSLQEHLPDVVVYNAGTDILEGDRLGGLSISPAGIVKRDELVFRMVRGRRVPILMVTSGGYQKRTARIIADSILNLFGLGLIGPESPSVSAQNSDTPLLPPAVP

## Nc1cc(F)ccc1NC(=O)c1ccc(CNC(=O)/C=C/c2cccnc2)cc1 [HBI-8000, N-(2-amino-4-fluorophenyl)-4-[[[(2E)-1-oxo-3-(3-pyridinyl)-2-propen-1-yl]amino]methyl]benz amide]
[1]
  inhibition of lung metastatic foci: −26%
[2]
  activity at HDAC 1 compared with Entinostat: more active than Entinostat
  inhibition of HDAC 1: low nanomolar concentrations
[3]
  activity at HDAC 2 compared with Entinostat: more active than Entinostat
  inhibition of HDAC 2: low nanomolar concentrations
[4]
  activity at HDAC 8: has activity
[4]; reported by Ning et al.
  activity at HDAC 8 compared with Entinostat: more active than Entinostat
[5]
  activity at HDAC 11: has activity
[5]; reported by Ning et al.
  activity at HDAC 11 compared with Entinostat: more active than Entinostat
